Data taken from the NIST ThermoML archive (doi:10.1016/j.jct.2005.07.009).

What was measured:
[1] = xn = mol fraction of the nth substance listed; conditions: 298.15 K, 101 kPa, Liquid, Vibrating tube method
[2] = excess molar enthalpy (molar enthalpy of mixing); xn = mol fraction of the nth substance listed; conditions: 298.15 K, 101 kPa, Liquid

BrCCCCCCBr [1,6-dibromohexane] + CCOC(=O)CC
Conditions	excess molar enthalpy [kcal/mol]	mass density [kg/m3]
[1], x2 = 0.0785	–	1558.6
[1], x2 = 0.1542	–	1515.02
[1], x2 = 0.223	–	1474.07
[1], x2 = 0.2897	–	1432.85
[1], x2 = 0.3566	–	1390.07
[1], x2 = 0.4169	–	1350.15
[1], x2 = 0.5364	–	1266.98
[1], x2 = 0.595	–	1224.16
[1], x2 = 0.6523	–	1181.7
[1], x2 = 0.7055	–	1139.41
[1], x2 = 0.7573	–	1097.77
[1], x2 = 0.8052	–	1058.09
[1], x2 = 0.8583	–	1012.69
[1], x2 = 0.9041	–	972.41
[2], x2 = 0.0655	0.0105	–
[2], x2 = 0.1421	0.0184	–
[2], x2 = 0.2176	0.0235	–
[2], x2 = 0.2889	0.0262	–
[2], x2 = 0.3565	0.0268	–
[2], x2 = 0.4183	0.0255	–
[2], x2 = 0.4746	0.0226	–
[2], x2 = 0.5242	0.0188	–
[2], x2 = 0.5687	0.0148	–
[2], x2 = 0.5968	0.0125	–
[2], x2 = 0.6497	0.00894	–
[2], x2 = 0.7061	0.00605	–
[2], x2 = 0.7663	0.0043	–
[2], x2 = 0.8256	0.00308	–
[2], x2 = 0.8846	0.00189	–
[2], x2 = 0.9439	0.000693	–

BrCCBr [1,2-dibromoethane] + CCOC(=O)CC
Conditions	excess molar enthalpy [kcal/mol]	mass density [kg/m3]
[1], x2 = 0.0479	–	2086.59
[1], x2 = 0.0959	–	2007.68
[1], x2 = 0.1904	–	1859.96
[1], x2 = 0.2852	–	1720.53
[1], x2 = 0.3448	–	1636.9
[1], x2 = 0.4532	–	1492.57
[1], x2 = 0.5156	–	1413.6
[1], x2 = 0.5836	–	1330.59
[1], x2 = 0.6423	–	1261.58
[1], x2 = 0.7044	–	1190.86
[1], x2 = 0.7717	–	1116.79
[1], x2 = 0.8366	–	1047.86
[1], x2 = 0.9155	–	967.12
[2], x2 = 0.0408	0.00294	–
[2], x2 = 0.0876	0.00552	–
[2], x2 = 0.1399	0.00636	–
[2], x2 = 0.1925	0.00495	–
[2], x2 = 0.2463	0.00124	–
[2], x2 = 0.3001	-0.00495	–
[2], x2 = 0.3515	-0.0114	–
[2], x2 = 0.3996	-0.0181	–
[2], x2 = 0.4154	-0.0205	–
[2], x2 = 0.4446	-0.0241	–
[2], x2 = 0.4644	-0.0276	–
[2], x2 = 0.486	-0.0301	–
[2], x2 = 0.522	-0.0345	–
[2], x2 = 0.5865	-0.0383	–
[2], x2 = 0.6595	-0.0372	–
[2], x2 = 0.7397	-0.0331	–
[2], x2 = 0.827	-0.0259	–
[2], x2 = 0.9159	-0.0163	–

BrCCCCBr [1,4-dibromobutane] + CCCCC(=O)OCC
Conditions	excess molar enthalpy [kcal/mol]	mass density [kg/m3]
[1], x2 = 0.0539	–	1762.5
[1], x2 = 0.109	–	1704.93
[1], x2 = 0.2129	–	1598.64
[1], x2 = 0.2678	–	1543.48
[1], x2 = 0.3262	–	1485.57
[1], x2 = 0.3815	–	1431.53
[1], x2 = 0.469	–	1347.31
[1], x2 = 0.5155	–	1303.25
[1], x2 = 0.554	–	1267.17
[1], x2 = 0.6207	–	1205.19
[1], x2 = 0.7373	–	1099.12
[1], x2 = 0.8643	–	986.49
[1], x2 = 0.9324	–	927.28
[2], x2 = 0.0901	0.0101	–
[2], x2 = 0.1832	0.0134	–
[2], x2 = 0.2717	0.0117	–
[2], x2 = 0.3528	0.00638	–
[2], x2 = 0.4123	-0.00198	–
[2], x2 = 0.4598	-0.00851	–
[2], x2 = 0.4897	-0.0118	–
[2], x2 = 0.5049	-0.0126	–
[2], x2 = 0.5621	-0.0171	–
[2], x2 = 0.6266	-0.0197	–
[2], x2 = 0.6967	-0.0208	–
[2], x2 = 0.7722	-0.0197	–
[2], x2 = 0.852	-0.016	–
[2], x2 = 0.9288	-0.00963	–

BrCCBr [1,2-dibromoethane] + CCOC=O
Conditions	excess molar enthalpy [kcal/mol]	mass density [kg/m3]
[1], x2 = 0.062	–	2094.82
[1], x2 = 0.1228	–	2022.36
[1], x2 = 0.1867	–	1945.54
[1], x2 = 0.2494	–	1869.83
[1], x2 = 0.3088	–	1797.46
[1], x2 = 0.366	–	1727.27
[1], x2 = 0.4251	–	1654.13
[1], x2 = 0.4893	–	1574.29
[1], x2 = 0.5444	–	1505.3
[1], x2 = 0.6044	–	1429.44
[1], x2 = 0.6588	–	1360.3
[1], x2 = 0.7175	–	1285.15
[1], x2 = 0.8304	–	1138.86
[1], x2 = 0.8871	–	1064.61
[1], x2 = 0.9405	–	994.23
[2], x2 = 0.0568	0.0286	–
[2], x2 = 0.1289	0.0522	–
[2], x2 = 0.1965	0.0704	–
[2], x2 = 0.2654	0.0861	–
[2], x2 = 0.3304	0.0957	–
[2], x2 = 0.3922	0.0993	–
[2], x2 = 0.4464	0.0988	–
[2], x2 = 0.497	0.0966	–
[2], x2 = 0.5357	0.0939	–
[2], x2 = 0.5433	0.0896	–
[2], x2 = 0.5813	0.0887	–
[2], x2 = 0.5831	0.0816	–
[2], x2 = 0.6341	0.0816	–
[2], x2 = 0.6895	0.0722	–
[2], x2 = 0.7525	0.0596	–
[2], x2 = 0.8186	0.0457	–
[2], x2 = 0.8841	0.0318	–
[2], x2 = 0.9442	0.016	–
